# Laboratory results published in US20120232011A1, “Use of Rapamycin and Rapamycin Derivatives for the Treatment of Bone Loss” (priority 2003, published 2012).
# Like-named read-outs stand apart in the source and are kept apart here.
# Experiments:
# [1] = test system: bone-resorbing osteoclasts differentiated from non-adherent bone marrow mononuclear cells; experiment: Mouse osteoclastogenesis assay (osteoclast formation and activity); format: cell-based
# Protocol: Non-adherent bone marrow mononuclear cells from 5-week-old male mice cells are differentiated into bone-resorbing osteoclasts by treatment with a cytokine cocktail containing receptor activator of NF kappa B ligand (RANKL), macrophage-colony stimulating factor (M-CSF) and interleukin-1 (IL-1) alpha. Osteoclast formation is measured after 6 days by quantifying the number of tartrate-resistant acid phosphatase (TRAP)-positive multinucleated cells generated in plastic wells on a 48-well plate. Osteoclast activity is measured after 12 days by quantifying the area of resorbed dentine slices placed in wells on a 48-well plate. Treatment with rapamycin or the rapamycin derivative, e.g. Compound A, starts at the beginning of cell culture, together with the cytokine treatment.
# [2] = test system: mouse pre-osteoblastic cell line MC3T3-1b; experiment: Osteoblast differentiation in MC3T3-1b cells (alkaline phosphatase staining); format: cell-based; conditions: MC3T3-1b cells with osteogenic stimulus (BMP-2, ascorbic acid, beta-glycerophosphate); read-out: Alkaline phosphatase (ALP) staining IC50
# Protocol: Osteoblast differentiation is evaluated in mouse pre-osteoblastic cell line MC3T3-1b, stimulated to differentiate with osteogenic stimulus (a mixture of bone morphogenetic protein 2 (BMP-2), ascorbic acid and beta-glycerophosphate). Osteoplast activity is measured by quantifying culture area covered with alkaline phosphate-positive cells on a 48-well plate. Treatment with rapamycin or the rapamycin derivative, e.g. Compound A, starts at the beginning of cell culture, together with the osteogenic stimulus treatment.
# [3] = test system: bone-resorbing osteoclasts differentiated from peripheral blood mononuclear cells; experiment: Human osteoclastogenesis assay; format: cell-based
# Protocol: Peripheral blood mononuclear cells from healthy male donors are differentiated into bone-resorbing osteoclasts by treatment with a cytokine cocktail containing RANKL, M-CSF and transforming growth factor (TGF)-beta 1. Osteoclast formation is measured after 17 days by quantifying the number of TRAP-positive multinucleated cells generated in plastic wells on a 96-well plate. Osteoclast activity is measured after 17 days by quantifying the area of resorbed bone on bovine cortical bone slices placed in wells on a 96-well plate. Treatment with rapamycin or the rapamycin derivative, e.g. Compound A, starts at the beginning of cell culture, together with the cytokine treatment. Collagen fragments are measured by enzyme linked immunosorbent assay (ELISA).
# [4] = test system: osteoclast-specific protease cathepsin K; experiment: Gene expression in human osteoclasts: cathepsin K; format: cell-based; conditions: human osteoclasts after treatment
# Protocol: (§1) A.3 Gene expression is analyzed according to a method known in the art, in human osteoclasts after treatment with rapamycin or a derivative thereof.
# [5] = test system: Cdc2-related serine/threonine PFTAIREI; experiment: Gene expression in human osteoclasts: PFTAIREI; format: cell-based; conditions: human osteoclasts after treatment
# Protocol: as §1
# [6] = test system: cancellous bone loss after ovariectomy; experiment: Ovariectomized rat model; format: in vivo
# Protocol: Before operation, the tibial bone mass and geometry of the animals is measured at baseline by dual-energy x-ray absorptiometry (DEXA) and periphere quantitative computer tomography (pQCT). Following ovariectomy (OVX) or sham operation, skeletally mature rats are treated for 8 weeks daily with 0.15 mg/kg, 0.5 mg/kg, 1.5 mg/kg, or 3.0 mg/kg of rapamycin or a rapamycin derivative, e.g. Compound A, or vehicle alone by oral administration or once a week with 1.5 mg/kg or 5.0 mg/kg of rapamycin or a rapamycin derivative; e.g. Compound A. At the beginning of the treatment, animals receive a fluorochrome label, e.g. calcein (e.g. 30 mg/kg, subcutaneous (s.c.)). Changes in bone mass and geometry (pQCT, DEXA) are evaluated in vivo after 4 weeks of treatment and at 8 weeks before necropsy. Body weight is monitored weekly. The animals are administered two further fluorochrome labels for marking of bone mineralization prior to necropsy, e.g. alizarin e.g. 20 mg/kg, s.c., 10 days prior to necropsy, and calcein e.g. 30 mg/kg, s.c., 3 days prior to necropsy. Blood samples (500 μl blood) are taken in heparin before necropsy and frozen at −20° C. for analysis of calcium, phosphate, TRAP, ALP, and osteocalcin. DEXA measurements are carried out at necropsy on excised tibia, femur, and lumbar vertebrae.
smiles,measurement,setting,value
"CO[C@H]1C[C@@H]2CC[C@@H](C)[C@@](O)(O2)C(=O)C(=O)N2CCCC[C@H]2C(=O)O[C@H]([C@H](C)C[C@@H]2CC[C@@H](OCCO)[C@H](OC)C2)CC(=O)[C@H](C)/C=C(\C)[C@@H](O)[C@@H](OC)C(=O)[C@H](C)C[C@H](C)/C=C/C=C/C=C/1C [Compound A, 40-O-(2-hydroxyethyl)-rapamycin]",IC50,"[1]; TRAP-positive multinucleated cells after 6 days, read-out: osteoclast formation IC50",10.5 ± 4.6 nM
same,IC50,"[1]; area of resorbed dentine slices after 12 days, read-out: osteoclast activity IC50",0.6 ± 0.3 nM
same,IC50,[2],13.5 ± 2.4 nM
same,IC50,"[3]; ELISA, read-out: Collagen fragment release IC50",4 ± 0.5 nM
same,IC50,"[3]; TRAP-positive multinucleated cells after 17 days, read-out: osteoclast formation IC50",7.7 ± 1.1 nM
same,IC50,"[3]; bovine cortical bone slices, 17 days, read-out: Resorbed area IC50",3.4 ± 0.3 nM
same,reduction of cathepsin K expression,[4],about 78%
same,increase of PFTAIREI expression,[5],about 300%
same,effect on trabecular number,[6],inhibits reduction of trabecular number
same,inhibition of cancellous bone loss,"[6]; 3 mg/kg/day, oral",60%
